Results: ChEMBL document CHEMBL5230155, “Recent contributions of quinolines to antimalarial and anticancer drug discovery research” (Eur J Med Chem, 2021)
pEC50, pIC50: −log10 of the molar value. Values belong to the compound of their own block, whether it stands above or below them.

Legend:
PC-3 = assay: Antiproliferative activity against human PC-3 cells; type: functional, cell-based
[1] = target: Alkaline phosphatase, germ cell type (Homo sapiens, UniProt P10696); assay: Inhibition of human germ cell alkaline phosphatase
Sequence of Alkaline phosphatase, germ cell type (P10696 whole entry): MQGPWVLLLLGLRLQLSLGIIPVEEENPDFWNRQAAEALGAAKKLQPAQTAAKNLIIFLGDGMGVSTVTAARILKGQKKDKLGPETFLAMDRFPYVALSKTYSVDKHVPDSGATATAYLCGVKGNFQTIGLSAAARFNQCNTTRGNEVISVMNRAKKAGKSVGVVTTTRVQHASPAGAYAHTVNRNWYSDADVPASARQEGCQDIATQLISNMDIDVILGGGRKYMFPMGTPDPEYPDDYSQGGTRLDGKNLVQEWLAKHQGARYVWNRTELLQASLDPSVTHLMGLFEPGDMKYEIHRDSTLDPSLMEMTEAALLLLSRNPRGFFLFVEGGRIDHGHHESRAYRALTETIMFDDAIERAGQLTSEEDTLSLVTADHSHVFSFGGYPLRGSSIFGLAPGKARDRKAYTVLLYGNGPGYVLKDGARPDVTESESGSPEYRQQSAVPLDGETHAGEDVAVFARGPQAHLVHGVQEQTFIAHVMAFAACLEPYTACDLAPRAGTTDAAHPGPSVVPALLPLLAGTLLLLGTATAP

A549 = assay: Cytotoxicity against human A549 cells; type: functional, cell-based
Plasmodium berghei [2] = assay: Antimalarial activity against Plasmodium berghei ANKA infected in mouse assessed increase in survival time at 20 mg/kg/day, ip for 4 days; type: functional; conditions: time 4 day
Plasmodium berghei [3] = assay: Antiplasmodial activity against Plasmodium berghei ANKA infected in mouse assessed as reduction in parasitaemia at 20 mg/kg/day, ip administered for 4 days; type: functional; set-up: scale not given: the % may be the effect or the level left; conditions: time 4 day
[4] = target: T1, Tyrosine-protein kinase receptor UFO (Homo sapiens, UniProt P30530); assay: Inhibition of AXL (unknown origin)
T1 sequence (P30530 whole entry): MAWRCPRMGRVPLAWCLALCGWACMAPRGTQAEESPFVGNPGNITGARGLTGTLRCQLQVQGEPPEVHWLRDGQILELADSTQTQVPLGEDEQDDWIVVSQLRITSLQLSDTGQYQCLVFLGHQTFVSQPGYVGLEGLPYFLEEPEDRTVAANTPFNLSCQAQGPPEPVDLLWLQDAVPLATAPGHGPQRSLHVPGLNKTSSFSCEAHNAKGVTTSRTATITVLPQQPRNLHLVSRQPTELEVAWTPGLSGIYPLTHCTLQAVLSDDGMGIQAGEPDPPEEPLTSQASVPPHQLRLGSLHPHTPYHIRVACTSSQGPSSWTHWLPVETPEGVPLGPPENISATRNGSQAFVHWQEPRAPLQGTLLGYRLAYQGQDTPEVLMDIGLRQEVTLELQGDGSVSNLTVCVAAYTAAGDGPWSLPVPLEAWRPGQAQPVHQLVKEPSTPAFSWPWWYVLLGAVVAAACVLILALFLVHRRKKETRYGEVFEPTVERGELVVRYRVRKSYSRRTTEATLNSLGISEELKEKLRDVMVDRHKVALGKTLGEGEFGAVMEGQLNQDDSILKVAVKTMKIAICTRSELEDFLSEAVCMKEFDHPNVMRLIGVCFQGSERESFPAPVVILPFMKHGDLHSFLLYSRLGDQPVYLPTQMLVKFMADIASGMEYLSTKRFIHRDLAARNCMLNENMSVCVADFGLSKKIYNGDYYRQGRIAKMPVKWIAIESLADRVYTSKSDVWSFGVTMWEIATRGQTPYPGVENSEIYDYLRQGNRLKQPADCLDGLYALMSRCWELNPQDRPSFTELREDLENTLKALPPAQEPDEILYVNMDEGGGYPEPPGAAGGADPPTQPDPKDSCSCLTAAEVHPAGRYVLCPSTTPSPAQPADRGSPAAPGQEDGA

Hemozoin = assay: Inhibition of beta-hematin formation relative to control; conditions: concentration not given here
MCF7 = assay: Antiproliferative activity against human MCF7 cells; type: functional, cell-based; conditions: Homo sapiens, MCF7
HeLa = assay: Antiproliferative activity against human HeLa cells; type: functional, cell-based
DLD-1 = assay: Antiproliferative activity against human DLD-1 cells; type: functional, cell-based
Hep 3B2 = assay: Cytotoxicity against human Hep3B cells assessed as relative value at 15 uM after 48 hrs by MTS method; type: functional
Plasmodium falciparum [5] = test system: Plasmodium falciparum
Description: Antimalarial activity against CQ-sensitive Plasmodium falciparum NF54

Plasmodium falciparum [6] = assay: Antimalarial activity against CQ-sensitive Plasmodium falciparum 3D7; type: functional, organism-based
[7] = Cytotoxicity against african green monkey Vero cells; type: toxicity, cell-based; conditions: African green monkey (Chlorocebus sabaeus)
G-361 = assay: Antiproliferative activity against human G-361 cells; type: functional, cell-based; conditions: read-out: IC50
RPMI-8226 [8] = assay: Induction of apoptosis in human RPMI-8226 cells assessed as fold increase in cytochrome c level; type: functional
HCT-116 = assay: Cytotoxicity against human HCT-116 cells; type: functional, cell-based
RPMI-8226 [9] = assay: Cytotoxicity against human RPMI-8226 cells; type: functional, cell-based
RPMI-8226 [10] = assay: Induction of apoptosis in human RPMI-8226 cells assessed as fold increase in caspase-3 level; type: functional
[11] = Inhibition of PI3K (unknown origin); set-up: species or system Homo sapiens
SNU-423 = assay: Antiproliferative activity against human SNU-423 cells; type: functional, cell-based
MDA-MB-453 = assay: Antiproliferative activity against human MDA-MB-453 cells; type: functional, cell-based
RT-112 = assay: Antiproliferative activity against human RT-112 cells; type: functional, cell-based
[12] = Selectivity index, ratio of IC50 for African green monkey Vero cells to IC50 for CQ sensitive Plasmodium falciparum 3D7; type: toxicity; conditions: read-out: Ratio IC50
Plasmodium falciparum [13] = assay: Antimalarial activity against CQ-resistant Plasmodium falciparum RKL-9; type: functional, organism-based
Plasmodium falciparum [14] = assay: Antimalarial activity against multidrug resistant Plasmodium falciparum Dd2; type: functional, organism-based
Plasmodium falciparum [15] = assay: Antimalarial activity against multidrug resistant Plasmodium falciparum K1; type: functional, organism-based
Plasmodium falciparum [16] = assay: Antimalarial activity against Plasmodium falciparum 3D7; type: functional, organism-based

pIC50 (PC-3): 7.74 | pIC50 [1]: > 7.12
Compound: Cc1cc2c(C(=O)Nc3nc4ccccc4s3)cc(O)nc2cc1Cl

pIC50 [4]: 7.68
Compound: COc1cc2c(Oc3ccc(NS(=O)(=O)c4ccccc4C(F)(F)F)cc3F)ccnc2cc1OCCCN1CCC(C)CC1

inhibition (Hemozoin): 61.3%
Compound: COc1ccc(C(=O)/C=C/c2cc3ccccc3nc2Cl)cc1OC

pIC50 (PC-3): 7.32 | pIC50 [1]: > 7.12
Compound: Cc1cc2nc(O)cc(C(=O)Nc3nc4ccccc4s3)c2cc1C

pIC50 (MCF7): 7.42 | pIC50 (HeLa): 7.42 | pIC50 (DLD-1): 7.42
Compound: COc1ccc2nc(Cl)c(C3CC(c4ccc(C)cc4)=NN3c3nc(-c4ccc(C)cc4)cs3)cc2c1 (centres undefined)

pIC50 (MCF7): 7.42 | pIC50 (HeLa): 7.42 | pIC50 (DLD-1): 7.42
Compound: COc1ccc2nc(O)c(/C=C/C(=O)c3ccc(C)cc3)cc2c1

pIC50 (Plasmodium falciparum [6]): 7.41
Compound: O=C(Cn1cc(-c2ccccc2)nn1)NCCCNc1ccnc2cc(Cl)ccc12
pIC50 [7]: < 5.30

pIC50 [4]: 6.44
Compound: COc1cc2nccc(Oc3ccc(NC(=O)Nc4ccc(F)cc4F)c(F)c3)c2cc1OC

pIC50 (MCF7): 7.42 | pIC50 (HeLa): 7.42 | pIC50 (DLD-1): 7.42
Compound: CCONC(=O)c1sc(N2N=C(c3ccc(C)cc3)CC2c2cc3cc(OC)ccc3nc2Cl)nc1C (centres undefined)

pIC50 [11]: 6.35
Compound: CC(=O)c1cccc(C#Cc2c(C3CC3)nc3ccccc3c2-c2ccc(F)cc2)c1

pIC50 [1]: > 7.12
Compound: O=C(Nc1nc2ccccc2s1)c1cc(O)nc2ccc(O)cc12

pIC50 (MCF7): 7.42 | pIC50 (HeLa): 7.42 | pIC50 (DLD-1): 7.42
Compound: COc1ccc2nc(Cl)c(C3CC(c4ccc(C)cc4)=NN3c3nc(C)c(/N=N/c4ccccc4)s3)cc2c1 (centres undefined)

The remaining lines, values behind:

Compound: CNS(=O)(=O)Nc1nccc(Cc2c(C)c3ccc(Oc4ncccn4)cc3oc2=O)c1F [AVUTOMETINIB]
GI50 (A549): 3.23 µM

Compound: COc1ccc(/C=C/C(=O)c2cccc(Nc3ccnc4cc(Cl)ccc34)c2)cc1OC
Time (Plasmodium berghei [2]): 22.44 days | Activity (Plasmodium berghei [3]): 1.4%

Compound: O=S(=O)(Oc1c(Br)cc(Br)c2cccnc12)c1cccc2cccnc12
fold change (FC) (Hep 3B2): 0.38

Compound: Clc1ccc2c(N3CC(CN4CCCC4)N=N3)ccnc2c1 (centres undefined) [listing 1 of 2 here]
pIC50 (Plasmodium falciparum [5]): 6.69

Compound: COc1ccc2ccc(F)c(CC(=O)N/N=C/c3ccc(C(F)(F)F)cc3)c2n1
pIC50 (G-361): 5.68 | pIC50 (MCF7): 5.68

Compound: COc1nc2ccccc2cc1/C=[N+](\[O-])c1ccccc1
fold change (FC) (RPMI-8226 [8]): 4 | pIC50 (HCT-116): 6.35 | pIC50 (RPMI-8226 [9]): 6.35 | fold change (FC) (RPMI-8226 [10]): 12

Compound: COc1cc(N(CCCSC(=S)N2CCN(CCO)CC2)S(=O)(=O)c2cccc3cccnc23)cc(OC)c1OC
pIC50 (SNU-423): 6.15 | pIC50 (MDA-MB-453): 6.15 | pIC50 (RT-112): 6.15

Compound: Clc1ccc2c(N3CC(CN4CCCC4)N=N3)ccnc2c1 (centres undefined) [listing 2 of 2 here]
pIC50 (Plasmodium falciparum [5]): 5.34

Compound: O=C(Cn1cc(COc2ccc(Br)cc2)nn1)NCCNc1ccnc2cc(Cl)ccc12
selectivity ratio [12]: 714 | pIC50 (Plasmodium falciparum [6]): 7.41 | pIC50 [7]: < 5.30 | pIC50 (Plasmodium falciparum [13]): 8.53

Compound: C[C@@H]1CCC2[C@@H](C)[C@H](OC(=O)CCC(=O)NCCNc3ccnc4cc(Cl)ccc34)O[C@@H]3O[C@@]4(C)CC[C@@H]1[C@@]23OO4 (some centres undefined)
pEC50 (Plasmodium falciparum [14]): 9.11 | pEC50 (Plasmodium falciparum [15]): 9.11 | pEC50 (Plasmodium falciparum [16]): 9.11

Compound: CSc1nc2ccccc2cc1/C=[N+](\[O-])c1ccccc1
fold change (FC) (RPMI-8226 [8]): 4 | pIC50 (HCT-116): 6.35 | pIC50 (RPMI-8226 [9]): 6.35 | fold change (FC) (RPMI-8226 [10]): 12

Compound: NC(=O)c1cnc2ccc(-c3cnc4ccccc4c3)cc2c1Nc1ccc(N2CCNCC2)c(C(F)(F)F)c1
GI50 (HCT-116): 2.8 µM | GI50 (A549): 2.8 µM

Compound: CCN1CCN(C(=S)SCCCN(c2cc(OC)c(OC)c(OC)c2)S(=O)(=O)c2cccc3cccnc23)CC1
pIC50 (SNU-423): 6.15 | pIC50 (MDA-MB-453): 6.15 | pIC50 (RT-112): 6.15

Compound: C#CCCCN(CCNc1ccnc2cc(Cl)ccc12)C(=O)CCC(=O)O[C@@H]1O[C@@H]2O[C@@]3(C)CC[C@H]4[C@H](C)CCC([C@H]1C)[C@@]24OO3 (some centres undefined)
pEC50 (Plasmodium falciparum [14]): 9.11 | pEC50 (Plasmodium falciparum [15]): 9.11 | pEC50 (Plasmodium falciparum [16]): 9.11

Compound: COc1cc(/C=C/C(=O)c2cccc(Nc3ccnc4cc(Cl)ccc34)c2)cc(OC)c1OC
Time (Plasmodium berghei [2]): 24.6 days | Activity (Plasmodium berghei [3]): 1.4%
